How the values were obtained:
CD4+CD25− naive T cells = experiment: Foxp3-GFP induction in naive T cells with anti-CD3/anti-CD28 and cytokines; assay type: cell-based, Foxp3gfp mouse
[1] = tested on: RAW264.7, JAWSII and DC2.4; experiment: Cy5-pEGFP plasmid entry and GFP expression in APC cell lines with amiloride; assay type: cell-based, mouse; conditions: vs un-treated cells
[2] = tested on: Cy5+ cells in draining lymph nodes; experiment: Cy5-pEGFP plasmid entry into draining lymph node cells after footpad injection; assay type: in vivo, C57B/6 mice; conditions: 4 hrs after footpad injection
Method: To explore if amiloride would overcome low transfection efficiency in vivo, Cy5-labeled pEFGP plasmid with or without amiloride was injected into hind footpads of C57B/6 mice. After 4 hrs, draining lymph nodes were collected and Cy5+ cells were analyzed by FACS analysis. The inguinal lymph nodes from the un-injected side were also collected as negative controls. […] The other ˜10% was B220+, a B cell marker. […].

[3] = tested on: RAW264.7, DC2.4 and JAWSII; experiment: Maturation markers and innate cytokines after pcD-S2 with or without amiloride, cell lines; assay type: cell-based, mouse
Method: With respect to cell culture and inhibitor treatment, RAW264.7 and DC2.4 were cultured in DMEM/10% FCS, and JAWSII was cultured in DMEM/10% FCS with GMCSF (1000 U/ml, Peprotech, USA). Amiloride (Sigma-Aldrich, USA) was prepared as 10 mM solution and was diluted to 1 mM, 100 uM, 10 uM in DMEM medium before treatment. After culture medium was removed, cells were treated with amiloride, MβCD (5 mM, Sigma) or Fillipin (10 μg/ml, sigma) at 37° C. for 1 h. LPS (10 μg/ml, sigma) or 10 μg/ml DNA in DMEM was added at 37° C. for 0.5 h, after wash, culture medium was added and cells were cultured. Peritoneal macrophage was prepared from peritoneal cavity with 10 ml PBS wash, routinely with ˜50-70% F4/80 purity. Spleen dendritic cell was prepared from plate-adhesive cells and purified with Miltenyi DC purification kit (Miltenyi Biotec, Gladbach, Germany). Cells were treated and cultured 3 days for innate response.
Hepatitis B virus DNA vaccine (pcD-S2) encoding for HBsAg, which was conjugated with Cy5, was used to test whether amiloride-facilitated DNA entry into antigen presenting cells could positively affect innate immune responses.

[4] = tested on: CD8 T cells co-cultured with peritoneal macrophages or spleen dendritic cells; experiment: APC and CD8 T cell co-culture, S208-215 restimulation; assay type: cell-based, mice; conditions: macrophages and DCs co-culture system
Method: With respect to co-cultures, pcD-S2 (10 μg/ml) with or without 100 μM amiloride treat APCs, peritoneal macrophage or spleen dendrtic cell, were cultured for 2 days. At day3, purified CD8 T cell (R&D systems, USA) was added into culture with APC:T ratio of 1:5, 1:2, 1:1. At day 8, cells were collected and restimulated with S208-215 (10 μg/ml). PMA+Ionomycin was added as positive control for restimulation.
During the co-culture, HBsAg-derived peptide S208-215 (ILSPFLPL; H-2 Kb-restricted) was used to re-stimulate. Proportions of responsive T cells were analyzed.

JAWS II cells = experiment: Endocytosis inhibitors and CD40low phenotype in JAWS II cells; assay type: cell-based, mouse; conditions: for effect on CD40low phenotype: pretreatment before pOVA323+OVA323
Method: The JAWS II mouse DC line was purchased from the American Type Culture Collection (ATCC, Manassas, Va., USA) and maintained in complete growth medium containing minimum essential medium (MEM) alpha with ribonucleosides, deoxyribonucleosides, 4 mM L-glutamine, and 1 mM sodium pyruvate (Invitrogen Inc., Carlsbad, Calif., USA), and supplemented with 20% fetal bovine serum (ATCC) and 5 ng/ml murine recombinant GM-CSF (R&D Systems, Inc., Minneapolis, Minn., USA). The cells were incubated at 37° C. with 5% CO2 and treated with different antigens (10 μg/ml) such as pVAX, pOVA, OVA, pOVA323 and OVA323 for 24 h. For inhibitor treatment, JAWS II cells were pre-treated with filipin (10 μg/ml), MDC (50 μM) for 30 min at 37° C., respectively, or with amiloride (5 mM) for 10 min at 37° C., and washed with medium, then stimulated with antigens.
DCs take up exogenous antigens via various mechanisms including clathrin-mediated endocytosis, caveolae-mediated endocytosis, and macropinocytosis. To define which pathway(s) were involved in the co-uptake of DNA and protein immunogens, JAWS II cells were pretreated with MDC, a specific inhibitor of clathrin formation, or filipin, an inhibitor of caveolae trafficking, before being treated with pOVA323+OVA323. […] Another inhibitor, amiloride, an inhibitor for macropinocytosis, had no effect on CD40 expression (FIG. 37).

HBsAg = conditions: vs pcD-S2 alone; dose dependent manner
splenic CD4+ T cells = experiment: In vitro restimulation of T cells from FSA1 sensitized mice; assay type: cell-based, C57BL/6 mice; conditions: than P66
Method: Splenic CD4^+ T cells from flea antigen immunized C57BL/6 mice were restimulated with P100 or P66 (5 ug/ml) in culture. T cell proliferation was determined by a 3-(4,5-Dimethylthiazol-2-yl)-2,5-diphenyltetrazolium bromide (MTT, a yellow tetrazole)-based assay. Concanavalin A (1 ug/ml) and BSA (1 ug/ml) were used as positive and negative controls, respectively. *, p<0.05. Shown is one of three independent experiments with similar results.
Flea allergic dermatitis is an allergic reaction to flea allergen that is mediated by CD4^+ T effector cells. To the above findings to a disease model, two antigenic epitopes from the flea allergen FSA1 were chosen, namely P66 (amino acids 66-80) (SEQ ID NO:189) and P100 (amino acids 100-114) (SEQ ID NO:188). […] This prediction was confirmed by sensitizing C57BL/6 mice (I-Ab^+) with full-length FSA1 followed by an in vitro restimulation assay using one of the epitopes.
With respect to T cell proliferation, MTT-based and CF SE-based T cell proliferation assays were performed as described before.

flea allergic dermatitis = experiment: Prophylactic co-immunization in flea allergic dermatitis model; assay type: in vivo, C57BL/6 mice; conditions: than P66
Source text: To see whether the difference in antigenicity influences the induction of CD25^− iTreg cells by these two epitopes, C57BL/6 mice were prophylactically treated with co-immunization using the combination of DNA and protein vaccines targeting each epitope (designated as Co100 or Co66). Seven days after co-immunization, the animals were sensitized with flea saliva extracts, followed by a delayed-type hypersensitivity assay to determine to which extent the prophylactic co-immunization prevents the development of an allergic reaction.
With respect to tolerogenic immunization, Balb/c mice were injected intramuscular (i.m.) on days 0 and 14 with 100 ug each of OVA323-339 and pVAX1-OVA, MT1 and pVAX1-MT1, or MT2 and pVAX1-MT2. C57BL/6 mice were similarly injected with P100 and D100, or P66 and D66.
With respect to the intradermal test and histology, antigen-sensitized C57BL/6 mice were challenged intradermally (i.d.) with 10 ug of FSA (Greer Laboratories) on the nonlesional lateral thorax skin. PBS is used as a sham control and histamine is used as a positive control. The diameter of the skin reaction was measured within 30 min after challenge using a calibrated micrometer. Skin samples were collected within 30 min of antigen challenge, fixed in 4% paraformaldehyde, embedded in paraffin, and sectioned. […]

MHC-II (I-Ad) = molecular target: T1, MHC-II (I-Ad) (Mus musculus, UniProt P01921+P04228); experiment: Tetramer staining-based epitope competition assay; assay type: binding
T1 construct: purchased NIH Tetramer Core Facility
T1 sequence (P04228 24-218 limits assumed): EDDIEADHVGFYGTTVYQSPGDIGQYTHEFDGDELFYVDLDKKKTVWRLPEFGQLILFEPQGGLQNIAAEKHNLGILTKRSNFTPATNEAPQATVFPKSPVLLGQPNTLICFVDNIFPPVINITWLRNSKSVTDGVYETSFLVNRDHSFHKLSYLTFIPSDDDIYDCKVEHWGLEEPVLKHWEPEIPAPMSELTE
T1 sequence (P01921 28-226 limits assumed): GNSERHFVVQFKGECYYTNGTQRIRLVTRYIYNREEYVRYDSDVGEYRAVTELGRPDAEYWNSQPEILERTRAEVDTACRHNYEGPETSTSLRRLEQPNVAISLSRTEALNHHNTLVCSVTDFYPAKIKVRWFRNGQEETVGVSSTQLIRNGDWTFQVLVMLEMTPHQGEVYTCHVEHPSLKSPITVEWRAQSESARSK
Method: To further determine how antigenicity affects CD25^− iTreg induction, a set of mutated epitopes were generated from OVA323-339 (SEQ ID NO:187). Using a tetramer staining-based epitope competition assay, the affinity of each of the mutated epitopes for MHC-II was assessed. […] OVA323-339, MT1, and MT2 as probes for antigenicity studies were therefore selected.
With respect to the tetramer competition assay, PE-conjugated OVA323-339-loaded I-Ad tetramer (NIH Tetramer Core Facility) was competed with OVA323-339 or a mutant peptide by incubation of 2×10^5 DO11.10 T cells, the OVA323-339 tetramer, and a competing peptide together for 5 minutes. Five volumes of medium with 10% FCS were added to stop the competition. Cells were washed 3 times and immediately analyzed for PE-positive T cells by flow cytometer.

TGF-β1: titrated rhTGF-β1 (PeproTech)
GFP (Foxp3) expression in CD25− T cells (CD4+CD25− naive T cells): up-regulated

N=C(N)NC(=O)c1nc(Cl)c(N)nc1N [amiloride]
GFP expression ([1]; 1 mM amiloride 1 h, after 3 days culture): significantly higher level of GFP
uptake of Cy5-labeled pEGFP plasmids ([1]; pre-treated with 1 mM amiloride for 1 h, within 2 hrs): significantly taken up
percentage of Cy5-plasmid+ cells in lymph nodes (LN) ([2]; amiloride 10 μM): increased
percentage of Cy5-plasmid+ cells in lymph nodes (LN) ([2]; amiloride 100 μM): peaked
percentage of Cy5-plasmid+ cells in lymph nodes (LN) ([2]; amiloride 1 mM): decreased
expression of CD40, CD80 and CD86 ([3]; pcD-S2 plasmid with amiloride treatment): higher levels of expression of CD40, CD80 and CD86
expression of TNF and IFN-γ ([3]; vs same cells without amiloride treatment): higher levels of expression of TNF and IFN-γ
percentage of S208-215 specific triple positive CD8 T effectors [4]: significantly increased
effect on CD40 expression (JAWS II cells; amiloride (5 mM) for 10 min): no effect
levels of antibody against HBsAg (HBsAg): increased

GPDWKVSKECKDPNN (Pulex irritans) [P100]
T cell proliferation (splenic CD4+ T cells): significantly more vigorous T cell proliferation
CD25− iTreg induced (flea allergic dermatitis): induced more

CN(C)c1cccc2c(S(=O)(=O)NCCCCCN)cccc12 [MDC, monodansylcadaverine]
effect on CD40low phenotype (JAWS II cells): could prevent

CCCCC[C@@H](O)[C@H]1C(=O)O[C@H](C)[C@@H](O)/C=C/C=C/C=C/C=C/C=C(\C)[C@@H](O)C[C@H](O)C[C@H](O)C[C@H](O)C[C@H](O)C[C@H](O)C[C@@H]1O [filipin]
relative effectiveness in preventing CD40low phenotype (JAWS II cells): more effective than MDC
effect on CD40low phenotype (JAWS II cells): could prevent

ISQAVHAAHAEINEAGR (listed as Gallus gallus) [OVA323-339]
order of affinity for MHC-II (MHC-II (I-Ad)): OVA323-339>MT1>MT2=MT3

B1: IL-10: rmIL10 (PeproTech) (protein, UniProt P18893 19-178, looked up)
Interleukin-10: SRGQYSREDNNCTHFPVGQSHMLLELRTAFSQVKTFFQTKDQLDNILLTDSLMQDFKGYLGCQALSEMIQFYLVEVMPQAEKHGPEIKEHLNSLGEKLKTLRMRLRRCHRFLPCENKSKAVEQVKSDFNKLQDQGVYKAMNEFDIFINCIEAYMMIKMKS
GFP (Foxp3) expression in CD25− T cells (CD4+CD25− naive T cells): neither alone influenced the expression of Foxp3
